Test results as given in patent US9266835B2, “Quinoline derivatives useful as CB-1 inverse agonists” (JANSSEN PHARMACEUTICA NV, priority 2014, dated 2016).
Like-named read-outs stand apart in the source and are kept apart here.

Assay: Chronic DIO Mouse, second study: plasma and brain concentrations
Format: in vivo
Conditions: DIO mice; for concentration at 2 h: male, mouse, oral
Experimental: Male 14-20-week old diet-induced obese mice were ordered from Taconic. Mice were started on a 60% fat diet (D12492, Research Diets, New Brunswick, N.J.) at 6 weeks of age. Mice were single-housed.
Test compounds were formulated in 10% PEG400 and 10% solutol. Test compounds were administered by oral gavage (5 ml kg^−1).
The test compound was formulated in 10% PEG400 and 10% solutol. […] At the end of the experiment, the mice were euthanized and blood and tissues were collected.
In a second study, Compound #44 was tested according to the procedure as described above, with results as listed in Tables BIO-5A through 5G, below.

Brain concentration (Std Dev) (0.3 mg/kg, Day 2, 2 hours post dose): BLOQ*
Brain concentration (Std Dev) (0.3 mg/kg, Day 23, 2 hours post dose): BLOQ**
Brain concentration (Std Dev) (1 mg/kg, Day 2, 2 hours post dose): BLOQ*
Brain concentration (Std Dev) (3 mg/kg, Day 2, 2 hours post dose): BLOQ*
concentration at 2 h (brain, 1 mg/kg, 1 mg/kg, Day 23, 2 hours post dose, read-out: Brain concentration (Std Dev)): 36.8 ng/g
concentration at 2 h (brain, 3 mg/kg, 3 mg/kg, Day 23, 2 hours post dose, read-out: Brain concentration (Std Dev)): 100 ng/g
concentration at 2 h (brain, 10 mg/kg, 10 mg/kg, Day 2, 2 hours post dose, read-out: Brain concentration (Std Dev)): 62.3 ng/g
concentration at 2 h (brain, 10 mg/kg, 10 mg/kg, Day 23, 2 hours post dose, read-out: Brain concentration (Std Dev)): 201 ng/g
concentration at 2 h (plasma, 0.3 mg/kg, 0.3 mg/kg, Day 2, 2 hours post dose, read-out: Plasma concentration (Std Dev)): 61.3 ng/mL
concentration at 2 h (plasma, 0.3 mg/kg, 0.3 mg/kg, Day 23, 2 hours post dose, read-out: Plasma concentration (Std Dev)): 192 ng/mL
concentration at 2 h (plasma, 1 mg/kg, 1 mg/kg, Day 2, 2 hours post dose, read-out: Plasma concentration (Std Dev)): 310 ng/mL
concentration at 2 h (plasma, 1 mg/kg, 1 mg/kg, Day 23, 2 hours post dose, read-out: Plasma concentration (Std Dev)): 515 ng/mL
concentration at 2 h (plasma, 3 mg/kg, 3 mg/kg, Day 2, 2 hours post dose, read-out: Plasma concentration (Std Dev)): 759 ng/mL
concentration at 2 h (plasma, 3 mg/kg, 3 mg/kg, Day 23, 2 hours post dose, read-out: Plasma concentration (Std Dev)): 1560 ng/mL
concentration at 2 h (plasma, 10 mg/kg, 10 mg/kg, Day 2, 2 hours post dose, read-out: Plasma concentration (Std Dev)): 2490 ng/mL
concentration at 2 h (plasma, 10 mg/kg, 10 mg/kg, Day 23, 2 hours post dose, read-out: Plasma concentration (Std Dev)): 5280 ng/mL
SMILES: O=c1cc(NC2CCN(S(=O)(=O)C(F)(F)F)CC2)c2cc(C(c3ccc(Cl)cc3)c3ccc(Cl)cc3)ccc2[nH]1 [Compound #44, 6-(bis(4-chlorophenyl)methyl)-4-(1-(trifluoromethylsulfonyl)piperidin-4-ylamino)quinolin-2(1H)-one]
